Test results: patent publication US9056865B2, “Pyridine-2-derivatives as smoothened receptor modulators” (Pfizer Inc., priority 2010, dated 2015)

What was measured:
Gli-Luc/MEF cells = assay: Gli-Luc/MEF assay; type: cell-based, mouse; conditions: Mus musculus, MEF; Shh-stimulated luciferase, 48 hours
Procedure, shortened: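 Mouse embryonic fibroblasts from Gli-Luc transgenic mice (luciferase under Gli response element) dosed with compounds (final […], 3-fold series), then stimulated with recombinant mouse Shh at final 2 μg/mL. After 48 h at 37 °C, luminescence read by Bright-Glo; IC50 from inhibition of Shh-induced signal.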

human Smo = human Smo (Homo sapiens (Human), UniProt Q99835); assay: Smo radioligand competition binding assay; conditions: for inhibition at 0.05 µM: 0.05 μM test compound, read-out: Smo % inh. @ 0.05 μM
Procedure, shortened: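 Membranes from HEK293 cells expressing surface human Smo 181-781 (40 μg protein/well) incubated 2 h at room temperature with test compound and tritiated Smo antagonist (3 nM), pH 7.5 Tris buffer; filtration and scintillation counting. Non-specific binding defined with 30 μM cold antagonist; IC50 from four-parameter sigmoidal fit.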

Chain of human Smo (Q99835 181-787): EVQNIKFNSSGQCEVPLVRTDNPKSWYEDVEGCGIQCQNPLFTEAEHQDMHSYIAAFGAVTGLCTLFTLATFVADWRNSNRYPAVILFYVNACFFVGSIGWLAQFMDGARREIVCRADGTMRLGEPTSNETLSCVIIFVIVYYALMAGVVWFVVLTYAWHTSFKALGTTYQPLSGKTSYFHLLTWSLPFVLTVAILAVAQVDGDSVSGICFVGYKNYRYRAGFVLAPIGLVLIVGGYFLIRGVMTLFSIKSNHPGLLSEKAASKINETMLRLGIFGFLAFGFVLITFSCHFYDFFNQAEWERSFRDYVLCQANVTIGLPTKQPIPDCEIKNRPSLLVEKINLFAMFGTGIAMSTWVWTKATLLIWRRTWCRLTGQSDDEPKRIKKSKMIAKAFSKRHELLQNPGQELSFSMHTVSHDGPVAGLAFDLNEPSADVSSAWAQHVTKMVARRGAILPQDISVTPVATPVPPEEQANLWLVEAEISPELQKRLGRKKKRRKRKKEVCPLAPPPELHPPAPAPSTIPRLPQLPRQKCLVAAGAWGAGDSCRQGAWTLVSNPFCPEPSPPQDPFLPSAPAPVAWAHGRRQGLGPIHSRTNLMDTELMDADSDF

SMILES	IC50 (Gli-Luc/MEF cells) [nM]	IC50 (human Smo) [nM]	inhibition at 0.05 µM (human Smo) [%]
Cc1cccnc1-c1cc(N2CCC(C(=O)NC[C@H]3CCCO3)CC2)ncc1Cl [Example A-63, 1-(5′-chloro-3-methyl-2,4′-bipyridin-2′-yl)-N-[(2R)-tetrahydrofuran-2-ylmethyl]piperidine-4-carboxamide]	83.6	137	82.5
Cc1cccnc1-c1cc(N2CCC(C(=O)NCC3(O)CCC3)CC2)ncc1Cl [Example A-64, 1-(5′-chloro-3-methyl-2,4′-bipyridin-2′-yl)-N-[(1-hydroxycyclobutyl)methyl]piperidine-4-carboxamide]	109	157	78.1
Cc1cccnc1-c1cc(N2CCC(C(=O)N3CCc4c(c(C(C)C)nn4C)C3)CC2)ncc1Cl [Example A-65, 5′-chloro-2′-{4-[(3-isopropyl-1-methyl-1,4,6,7-tetrahydro-5H-pyrazolo[4,3-c]pyridin-5-yl)carbonyl]piperidin-1-yl}-3-methyl-2,4′-bipyridine]	124	145	78.5
Cc1cccnc1-c1cc(N2CCC(C(=O)N[C@@H]3CC[C@@H](O)C3)CC2)ncc1Cl [Example A-66, 1-(5′-chloro-3-methyl-2,4′-bipyridin-2′-yl)-N-[(1R,3R)-3-hydroxycyclopentyl]piperidine-4-carboxamide]	94	162	81.7
Cc1cccnc1-c1cc(N2CCC(C(=O)NCCS(C)(=O)=O)CC2)ncc1Cl [Example A-67, 1-(5′-chloro-3-methyl-2,4′-bipyridin-2′-yl)-N-[2-(methylsulfonyl)ethyl]piperidine-4-carboxamide]	164	217	70.4
Cc1cccnc1-c1cc(N2CCC(C(=O)N[C@@H]3CS(=O)(=O)C[C@H]3O)CC2)ncc1Cl [Example A-68, 1-(5′-chloro-3-methyl-2,4′-bipyridin-2′-yl)-N-[(3S,4S)-4-hydroxy-1,1-dioxidotetrahydro-3-thienyl]piperidine-4-carboxamide]	54.4	120	88.8
Cc1cccnc1-c1cc(N2CC(C(=O)N(C)[C@@H]3CS(=O)(=O)C[C@H]3O)C2)ncc1Cl [Example A-69, 1-(5′-chloro-3-methyl-2,4′-bipyridin-2′-yl)-N-[(3S,4S)-4-hydroxy-1,1-dioxidotetrahydro-3-thienyl]-N-methylazetidine-3-carboxamide]	148	189	74.4
Cc1cccnc1-c1cc(N2CCC(C(=O)N(C)[C@@H]3CS(=O)(=O)C[C@H]3O)CC2)ncc1Cl [Example A-70, 1-(5′-chloro-3-methyl-2,4′-bipyridin-2′-yl)-N-[(3S,4S)-4-hydroxy-1,1-dioxidotetrahydro-3-thienyl]-N-methylpiperidine-4-carboxamide]	27.3	42.4	105
Cc1cccnc1-c1cc(N2CCC(C(=O)NC3CCCCC3O)CC2)ncc1Cl (stereo not drawn) [Example A-72, 1-(5′-chloro-3-methyl-2,4′-bipyridin-2′-yl)-N-(2-hydroxycyclohexyl)piperidine-4-carboxamide]	22.5	28.3	96.3
Cc1cccnc1-c1cc(N2CCC(C(=O)NCCc3nc4cccnc4n3C)CC2)ncc1Cl [Example A-73, 1-(5′-chloro-3-methyl-2,4′-bipyridin-2′-yl)-N-[2-(3-methyl-3H-imidazo[4,5-b]pyridin-2-yl)ethyl]piperidine-4-carboxamide]	55.8	154	76.1
Cc1cccnc1-c1cc(N2CCC(C(=O)NCC3CN(CC4CC4)C(=O)CO3)CC2)ncc1Cl (stereo not drawn) [Example A-74, 1-(5′-chloro-3-methyl-2,4′-bipyridin-2′-yl)-N-{[4-(cyclopropylmethyl)-5-oxomorpholin-2-yl]methyl}piperidine-4-carboxamide]	23	25.5	97.8
Cc1cccnc1-c1cc(N2CCC(C(=O)Nc3cccc(CO)n3)CC2)ncc1Cl [Example A-75, 1-(5′-chloro-3-methyl-2,4′-bipyridin-2′-yl)-N-[6-(hydroxymethyl)pyridin-2-yl]piperidine-4-carboxamide]	47.9	93.3	88.6
Cc1cccnc1-c1cc(N2CCC(C(=O)NC3(CO)CCCC3)CC2)ncc1Cl [Example A-76, 1-(5′-chloro-3-methyl-2,4′-bipyridin-2′-yl)-N-[1-(hydroxymethyl)cyclopentyl]piperidine-4-carboxamide]	18.3	25.8	91.6
Cc1cccnc1-c1cc(N2CCC(C(=O)NC3CCOCC3)CC2)ncc1Cl [Example A-77, 1-(5′-chloro-3-methyl-2,4′-bipyridin-2′-yl)-N-(tetrahydro-2H-pyran-4-yl)piperidine-4-carboxamide]	48.4	52.5	87.7
Cc1cccnc1-c1cc(N2CCC(C(=O)NC3CCOC3)CC2)ncc1Cl (stereo not drawn) [Example A-78, 1-(5′-chloro-3-methyl-2,4′-bipyridin-2′-yl)-N-(tetrahydrofuran-3-yl)piperidine-4-carboxamide]	87.3	295	70.1
COc1ccccc1CNC(=O)C1CCN(c2cc(-c3ncccc3C)c(Cl)cn2)CC1 [Example A-79, 1-(5′-chloro-3-methyl-2,4′-bipyridin-2′-yl)-N-(2-methoxybenzyl)piperidine-4-carboxamide]	30.5	161	78.4
Cc1cccnc1-c1cc(N2CCC(C(=O)NC3CCS(=O)(=O)CC3)CC2)ncc1Cl [Example A-80, 1-(5′-chloro-3-methyl-2,4′-bipyridin-2′-yl)-N-(1,1-dioxidotetrahydro-2H-thiopyran-4-yl)piperidine-4-carboxamide]	16.5	33.6	101
Cc1cccnc1-c1cc(N2CCC(C(=O)N[C@@H]3CCCC[C@H]3O)CC2)ncc1Cl [Example A-81, 1-(5′-chloro-3-methyl-2,4′-bipyridin-2′-yl)-N-[(1R,2R)-2-hydroxycyclohexyl]piperidine-4-carboxamide]	15.7	32.6	97.9
Cc1cccnc1-c1cc(N2CCC(C(=O)N3CCN(c4ccc(O)nn4)CC3)CC2)ncc1Cl [Example A-82, 6-(4-{[1-(5′-chloro-3-methyl-2,4′-bipyridin-2′-yl)piperidin-4-yl]carbonyl}piperazin-1-yl)pyridazin-3-ol]	38.8	39.2	92.6
Cc1cccnc1-c1cc(N2CCC(C(=O)NCC3CCCCO3)CC2)ncc1Cl (stereo not drawn) [Example A-83, 1-(5′-chloro-3-methyl-2,4′-bipyridin-2′-yl)-N-(tetrahydro-2H-pyran-2-ylmethyl)piperidine-4-carboxamide]	48.5	138	78.9
Cc1cccnc1-c1cc(N2CCC(C(=O)NC3CCOC4(CCN(C)CC4)C3)CC2)ncc1Cl (stereo not drawn) [Example A-84, 1-(5′-chloro-3-methyl-2,4′-bipyridin-2′-yl)-N-(9-methyl-1-oxa-9-azaspiro[5.5]undec-4-yl)piperidine-4-carboxamide]	92	283	71.5
Cc1cccnc1-c1cc(N2CCC(C(=O)N3CCCC[C@H]3CO)CC2)ncc1Cl [Example A-85, [(2S)-1-{[1-(5′-chloro-3-methyl-2,4′-bipyridin-2′-yl)piperidin-4-yl]carbonyl}piperidin-2-yl]methanol]	116	42.4	92.7
Cc1cccnc1-c1cc(N2CCC(C(=O)N3CCCC(O)C3CO)CC2)ncc1Cl (stereo not drawn) [Example A-86, 1-{[1-(5′-chloro-3-methyl-2,4′-bipyridin-2′-yl)piperidin-4-yl]carbonyl}-2-(hydroxymethyl)piperidin-3-ol]	116	112	81.5
Cc1cccnc1-c1cc(N2CCC(C(=O)NCCc3c[nH]cn3)CC2)ncc1Cl [Example A-87, 1-(5′-chloro-3-methyl-2,4′-bipyridin-2′-yl)-N-[2-(1H-imidazol-4-yl)ethyl]piperidine-4-carboxamide]	123	134	81.8
Cc1cccnc1-c1cc(N2CCC(C(=O)Nc3cnn(C)n3)CC2)ncc1Cl [Example A-88, 1-(5′-chloro-3-methyl-2,4′-bipyridin-2′-yl)-N-(2-methyl-2H-1,2,3-triazol-4-yl)piperidine-4-carboxamide]	53	49	85.6
Cc1cccnc1-c1cc(N2CCC(C(=O)N[C@H]3CC[C@H](CO)CC3)CC2)ncc1Cl [Example A-89, 1-(5′-chloro-3-methyl-2,4′-bipyridin-2′-yl)-N-[trans-4-(hydroxymethyl)cyclohexyl]piperidine-4-carboxamide]	24.4	28.5	94.6
CC(C)(O)CC(=O)N1CCN(c2ccc(Cl)c(-c3ccccn3)n2)CC1 [Example A-90, 4-[4-(3-chloro-2,2′-bipyridin-6-yl)piperazin-1-yl]-2-methyl-4-oxobutan-2-ol]	66.9	111	82.5
NS(=O)(=O)CC1CCN(c2ccc(Cl)c(-c3ccccn3)n2)CC1 [Example A-91, 1-[1-(3-chloro-2,2′-bipyridin-6-yl)piperidin-4-yl]methanesulfonamide]	28.6	26.3	92.7
